Patent US9206188B2, “Substituted pyrrolo[2,3-b]pyridines as ITK and JAK inhibitors” (Arrien Pharmaceuticals LLC, priority 2013, dated 2015)
pIC50: −log10 of the molar value. Like-named read-outs stand apart in the source and are kept apart here.

Assays:
JAK3 = JAK3 (Homo sapiens (Human), UniProt P52333); assay: JAK3 kinase assay (radiometric filter binding, 10 μM ATP); assay type: biochemical
Description: (§1) All additions were done on ice, followed by the addition of ATP mix. Wells were uniformly mixed using an Eppendorff plate shaker and incubated at 30° C. for 20 min, and stopped by the addition of 5 μL of 3% phosphoric acid. Volume was increased to 100 μL by adding 0.8% phosphoric acid which was then transferred to PC filter mats (Millipore), pre-equilibrated with 70% ethanol and water. Plates were washed thrice with 100 μL 0.8% phosphoric acid and dried for an hour at 60° C. 100 μL scintillation fluid was added into each well and reading taken in Perkin Elmer TOPCOUNT beta counter.
(§2) The reactions were carried out at 10 μM ATP for ITK, JAK3 and other TEC and Janus family of kinase.

ITK = ITK (Homo sapiens (Human), UniProt Q08881); assay: ITK kinase assay (radiometric filter binding, 10 μM ATP); assay type: biochemical
Description: as §1, §2

[1] = 10-dose IC50 mode, 10 μM ATP, read-out: JAK3 kinase inhibition
[2] = 10-dose IC50 mode, 10 μM ATP, read-out: ITK kinase inhibition
[3] = read-out: biochemical IC50 against JAK3
[4] = read-out: biochemical IC50 against ITK

Chain of ITK (Q08881 whole entry): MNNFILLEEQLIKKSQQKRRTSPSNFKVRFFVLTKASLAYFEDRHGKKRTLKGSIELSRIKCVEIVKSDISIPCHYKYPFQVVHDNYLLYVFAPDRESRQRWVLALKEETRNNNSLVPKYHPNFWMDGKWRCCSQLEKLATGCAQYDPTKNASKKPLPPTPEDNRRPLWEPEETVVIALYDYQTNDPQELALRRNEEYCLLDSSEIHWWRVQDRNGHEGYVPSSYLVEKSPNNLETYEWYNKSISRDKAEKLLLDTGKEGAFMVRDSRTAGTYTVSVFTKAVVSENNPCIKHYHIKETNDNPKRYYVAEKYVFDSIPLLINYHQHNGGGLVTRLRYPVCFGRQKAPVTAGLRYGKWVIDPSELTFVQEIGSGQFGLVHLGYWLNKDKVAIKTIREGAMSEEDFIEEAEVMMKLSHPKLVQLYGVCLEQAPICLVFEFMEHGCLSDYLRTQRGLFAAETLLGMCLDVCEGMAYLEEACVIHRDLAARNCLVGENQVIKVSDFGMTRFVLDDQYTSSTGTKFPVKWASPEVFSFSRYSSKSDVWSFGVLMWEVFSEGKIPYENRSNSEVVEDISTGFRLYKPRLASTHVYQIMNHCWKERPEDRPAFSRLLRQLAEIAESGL
Chain of JAK3 (P52333 whole entry): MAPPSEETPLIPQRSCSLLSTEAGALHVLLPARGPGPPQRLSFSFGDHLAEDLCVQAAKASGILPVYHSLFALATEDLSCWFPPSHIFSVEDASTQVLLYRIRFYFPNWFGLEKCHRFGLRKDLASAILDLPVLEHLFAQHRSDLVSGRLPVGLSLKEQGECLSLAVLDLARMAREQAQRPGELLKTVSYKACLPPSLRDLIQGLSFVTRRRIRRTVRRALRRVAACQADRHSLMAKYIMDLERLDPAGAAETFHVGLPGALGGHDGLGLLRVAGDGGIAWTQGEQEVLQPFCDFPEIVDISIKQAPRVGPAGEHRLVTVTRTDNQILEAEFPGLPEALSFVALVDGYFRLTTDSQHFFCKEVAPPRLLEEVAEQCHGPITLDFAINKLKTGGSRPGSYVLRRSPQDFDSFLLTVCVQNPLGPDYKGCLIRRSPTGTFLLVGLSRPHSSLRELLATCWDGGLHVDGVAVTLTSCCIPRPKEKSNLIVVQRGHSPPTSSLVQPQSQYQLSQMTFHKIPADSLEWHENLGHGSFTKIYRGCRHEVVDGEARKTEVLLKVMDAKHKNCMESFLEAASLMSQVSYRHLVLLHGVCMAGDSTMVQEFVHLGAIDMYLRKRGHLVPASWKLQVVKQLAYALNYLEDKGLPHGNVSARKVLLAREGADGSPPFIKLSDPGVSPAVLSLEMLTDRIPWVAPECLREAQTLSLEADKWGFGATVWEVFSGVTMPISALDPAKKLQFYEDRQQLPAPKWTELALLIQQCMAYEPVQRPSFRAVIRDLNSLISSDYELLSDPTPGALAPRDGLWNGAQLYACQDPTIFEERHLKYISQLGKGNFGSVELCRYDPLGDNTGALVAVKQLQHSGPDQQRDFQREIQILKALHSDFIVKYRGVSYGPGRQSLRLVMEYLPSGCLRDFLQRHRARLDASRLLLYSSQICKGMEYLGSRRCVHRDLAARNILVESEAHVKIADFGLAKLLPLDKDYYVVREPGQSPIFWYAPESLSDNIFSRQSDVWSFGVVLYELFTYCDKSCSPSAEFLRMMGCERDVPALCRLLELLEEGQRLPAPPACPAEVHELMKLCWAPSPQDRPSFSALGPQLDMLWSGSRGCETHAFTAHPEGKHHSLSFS

| pIC50 (JAK3; [1]) | pIC50 (ITK; [2]) | pIC50 (JAK3; [3]) | pIC50 (ITK; [4]) | Compound |
| --- | --- | --- | --- | --- |
| < 6.00 | < 6.00 |  |  | C=CC(=O)Nc1cccc(-c2cnc3[nH]nc(C)c3c2)c1 [Example 1, N-(3-(3-methyl-1H-pyrazolo[3,4-b]pyridin-5-yl)phenyl)acrylamide] |
| < 7.00 | < 7.00 |  |  | C=CC(=O)Nc1cccc(-c2cnc3[nH]cc(-c4cc5ccc(C)cc5[nH]4)c3n2)c1 [Example 2, N-(3-(7-(6-methyl-1H-indol-2-yl)-5H-pyrrolo[2,3-b]pyrazin-2-yl)phenyl)acrylamide] |
|  |  | 6.00 to 7.00 | 6.00 to 7.00 | C=CC(=O)Nc1cccc(-c2cnc3[nH]cc(-c4cc5ccccc5[nH]4)c3n2)c1 [Example 5, N-(3-(7-(1H-indol-2-yl)-5H-pyrrolo[2,3-b]pyrazin-2-yl)phenyl)acrylamide] |
|  |  | 6.00 to 7.00 | 6.00 to 7.00 | C=CC(=O)Nc1cccc(-c2cnc3[nH]cc(C)c3c2)c1 [Example 8, N-(3-(3-methyl-1H-pyrrolo[2,3-b]pyridin-5-yl)phenyl)acrylamide] |
| < 7.00 | < 7.00 |  |  | C=CC(=O)Nc1cc(-c2cnc3[nH]cc(C)c3c2)ccc1Cl [Example 15, N-(2-chloro-5-(3-methyl-1H-pyrrolo[2,3-b]pyridin-5-yl)phenyl)acrylamide] |
| > 7.00 | < 6.00 | 6.00 to 7.00 | 6.00 to 7.00 | C#CC1(C(=O)Nc2cccc(-c3cnc4[nH]cc(Cl)c4c3)c2)CC1 [Example 16, N-(3-(3-chloro-1H-pyrrolo[2,3-b]pyridin-5-yl)phenyl)-1-ethynylcyclopropanecarboxamide] |
| < 6.00 | < 6.00 |  |  | C=CC(=O)Nc1ccccc1-c1cnc2[nH]cc(C)c2c1 [Example 17, N-(2-(3-methyl-1H-pyrrolo[2,3-b]pyridin-5-yl)phenyl)acrylamide] |
| < 6.00 | < 6.00 |  |  | C=CC(=O)Nc1ccccc1-c1cnc2[nH]cc(Cl)c2c1 [Example 18, N-(2-(3-chloro-1H-pyrrolo[2,3-b]pyridin-5-yl)phenyl)acrylamide] |
| > 7.00 | > 7.00 |  |  | CC#CC(=O)Nc1cccc(-c2cnc3[nH]cc(Cl)c3c2)c1 [Example 19, N-(3-(3-chloro-1H-pyrrolo[2,3-b]pyridin-5-yl)phenyl)but-2-ynamide] |
| > 7.00 | > 7.00 |  |  | C#CC(=O)Nc1cccc(-c2cnc3[nH]cc(Cl)c3c2)c1 [Example 20, N-(3-(3-chloro-1H-pyrrolo[2,3-b]pyridin-5-yl)phenyl)propiolamide] |
| > 7.00 | > 7.00 |  |  | CCC#CC(=O)Nc1cccc(-c2cnc3[nH]cc(Cl)c3c2)c1 [Example 21, N-(3-(3-chloro-1H-pyrrolo[2,3-b]pyridin-5-yl)phenyl)pent-2-ynamide] |
| > 7.00 | > 7.00 |  |  | CC#CC(=O)Nc1cccc(-c2cnc3[nH]cc(C)c3c2)c1 [Example 23, N-(3-(3-methyl-1H-pyrrolo[2,3-b]pyridin-5-yl)phenyl)but-2-ynamide] |
| > 7.00 | < 7.00 |  |  | CCC#CC(=O)Nc1cccc(-c2cnc3[nH]cc(C)c3c2)c1 [Example 24, N-(3-(3-methyl-1H-pyrrolo[2,3-b]pyridin-5-yl)phenyl)pent-2-ynamide] |
| > 7.00 | > 7.00 |  |  | C=CC(=O)Nc1cccc(-c2cnc3[nH]cc(-c4cccc(F)c4OC)c3c2)c1 [Example 26, N-(3-(3-(3-fluoro-2-methoxyphenyl)-1H-pyrrolo[2,3-b]pyridin-5-yl)phenyl)acrylamide] |
| > 7.00 | > 7.00 |  |  | C=CC(=O)Nc1cccc(-c2cnc3[nH]cc(-c4cccc(S(=O)(=O)N(C)C(C)(C)C)c4)c3c2)c1 [Example 27, N-(3-(3-(3-(N-(tert-butyl)-N-methylsulfamoyl)phenyl)-1H-pyrrolo[2,3-b]pyridin-5-yl)phenyl)acrylamide] |
| > 7.00 | > 7.00 |  |  | C=CC(=O)Nc1cccc(-c2cnc3[nH]cc(-c4cccc(C(=O)OCC)c4)c3c2)c1 [Example 29, ethyl 3-(5-(3-acrylamidophenyl)-1H-pyrrolo[2,3-b]pyridin-3-yl)benzoate] |
| > 7.00 | > 7.00 |  |  | C=CC(=O)Nc1cccc(-c2cnc3[nH]cc(-c4cc(F)cc(F)c4OC)c3c2)c1 [Example 30, N-(3-(3-(3,5-difluoro-2-methoxyphenyl)-1H-pyrrolo[2,3-b]pyridin-5-yl)phenyl)acrylamide] |

| pIC50 (JAK3; [1]) | pIC50 (ITK; [2]) | pIC50 (JAK3; [3]) | pIC50 (ITK; [4]) | Compound |
| --- | --- | --- | --- | --- |
| > 7.00 | < 7.00 |  |  | CCC#CC(=O)Nc1cccc(-c2cnc3[nH]cc(-c4cccc(S(=O)(=O)N(C)C(C)(C)C)c4)c3c2)c1 [Example 32, N-(3-(3-(3-(N-(tert-butyl)-N-methylsulfamoyl)phenyl)-1H-pyrrolo[2,3-b]pyridin-5-yl)phenyl)pent-2-ynamide] |
| > 7.00 | > 7.00 |  |  | C=CC(=O)Nc1cccc(-c2cnc3[nH]cc(-c4cccc(S(=O)(=O)N(C)C(C)(C)C)c4)c3n2)c1 [Example 33, N-(3-(7-(3-(N-(tert-butyl)-N-methylsulfamoyl)phenyl)-5H-pyrrolo[2,3-b]pyrazin-2-yl)phenyl)acrylamide] |
| < 7.00 | < 7.00 |  |  | C=CC(=O)Nc1cccc(-c2cnc3[nH]cc(-c4cccc(S(=O)(=O)N(C)C)c4)c3c2)c1 [Example 34, N-(3-(3-(3-(N,N-dimethylsulfamoyl)phenyl)-1H-pyrrolo[2,3-b]pyridin-5-yl)phenyl)acrylamide] |
| < 7.00 | < 7.00 |  |  | C=CC(=O)Nc1cccc(-c2cnc3[nH]cc(-c4cccc(S(C)(=O)=O)c4)c3c2)c1 [Example 35, N-(3-(3-(3-(methylsulfonyl)phenyl)-1H-pyrrolo[2,3-b]pyridin-5-yl)phenyl)acrylamide] |
| < 7.00 | < 7.00 |  |  | C=CC(=O)Nc1cccc(-c2cnc3[nH]cc(-c4cccc(S(=O)(=O)CC)c4)c3c2)c1 [Example 36, N-(3-(3-(3-(ethylsulfonyl)phenyl)-1H-pyrrolo[2,3-b]pyridin-5-yl)phenyl)acrylamide] |
| < 7.00 | < 7.00 |  |  | CCC#CC(=O)Nc1cccc(-c2cnc3[nH]cc(-c4cc(F)cc(F)c4OC)c3c2)c1 [Example 37, N-(3-(3-(3,5-difluoro-2-methoxyphenyl)-1H-pyrrolo[2,3-b]pyridin-5-yl)phenyl)pent-2-ynamide] |
| < 7.00 | < 7.00 |  |  | C=CC(=O)Nc1cc(-c2cnc3[nH]cc(-c4cc(F)cc(F)c4OC)c3c2)ccc1F [Example 38, N-(5-(3-(3,5-difluoro-2-methoxyphenyl)-1H-pyrrolo[2,3-b]pyridin-5-yl)-2-fluorophenyl)acrylamide] |
| < 7.00 | < 7.00 |  |  | C=CC(=O)Nc1cc(-c2cnc3[nH]cc(-c4cc(F)cc(F)c4OC)c3c2)c(F)cc1F [Example 39, N-(5-(3-(3,5-difluoro-2-methoxyphenyl)-1H-pyrrolo[2,3-b]pyridin-5-yl)-2,4-difluorophenyl)acrylamide] |
| < 7.00 | < 7.00 |  |  | C=CC(=O)Nc1ccc(F)c(-c2cnc3[nH]cc(-c4cc(F)cc(F)c4OC)c3c2)c1 [Example 40, N-(3-(3-(3,5-difluoro-2-methoxyphenyl)-1H-pyrrolo[2,3-b]pyridin-5-yl)-4-fluorophenyl)acrylamide] |
| < 7.00 | < 7.00 |  |  | C=CC(=O)Nc1cc(-c2cnc3[nH]cc(-c4cc(F)cc(F)c4OC)c3c2)ccc1Cl [Example 41, N-(2-chloro-5-(3-(3,5-difluoro-2-methoxyphenyl)-1H-pyrrolo[2,3-b]pyridin-5-yl)phenyl)acrylamide] |
| < 7.00 | < 7.00 |  |  | C=CC(=O)Nc1cccc(-c2cnc3[nH]cc(-c4cc(F)cc(F)c4OC)c3c2)n1 [Example 42, N-(6-(3-(3,5-difluoro-2-methoxyphenyl)-1H-pyrrolo[2,3-b]pyridin-5-yl)pyridin-2-yl)acrylamide] |
|  | < 6.00 |  |  | CN(C)/C=C/C(=O)Nc1cccc(-c2cnc3[nH]cc(Cl)c3c2)c1 [Example 44, (E)-N-(3-(3-chloro-1H-pyrrolo[2,3-b]pyridin-5-yl)phenyl)-3-(dimethylamino)acrylamide] |
| < 6.00 | < 6.00 |  |  | C=CC(=O)Nc1cc(-c2cnc3[nH]cc(Cl)c3c2)ccc1Cl [Example 46, N-(2-chloro-5-(3-chloro-1H-pyrrolo[2,3-b]pyridin-5-yl)phenyl)acrylamide] |
| < 6.00 | < 6.00 |  |  | CC/C=C/C(=O)Nc1cc(-c2cnc3[nH]cc(Cl)c3c2)ccc1Cl [Example 47, (E)-N-(2-chloro-5-(3-chloro-1H-pyrrolo[2,3-b]pyridin-5-yl)phenyl)pent-2-enamide] |
| < 7.00 |  |  |  | C=CC(=O)Nc1cc(-c2cnc3[nH]cc(Cl)c3c2)cc(F)c1F [Example 64, N-(5-(3-chloro-1H-pyrrolo[2,3-b]pyridin-5-yl)-2,3-difluorophenyl)acrylamide] |
| > 7.00 |  |  |  | CC#CC(=O)Nc1cc(-c2cnc3[nH]cc(Cl)c3c2)ccc1F [Example 88, N-(5-(3-chloro-1H-pyrrolo[2,3-b]pyridin-5-yl)-2-fluorophenyl)but-2-ynamide] |
| < 7.00 |  |  |  | (E)-N-(2-chloro-5-(3-methyl-1H- pyrrolo[2,3-b]pyridin-5- yl)phenyl)pent-1-enamide [Example 14] |

| Compound | pIC50 (JAK3; [1]) | pIC50 (ITK; [2]) | pIC50 (JAK3; [3]) | pIC50 (ITK; [4]) |
| --- | --- | --- | --- | --- |
| O=C(CF)Nc1cccc(-c2cnc3[nH]cc(Cl)c3c2)c1 [Example 22, N-(3-(3-chloro-1H-pyrrolo[2,3-b]pyridin-5-yl)phenyl)-2-fluoroacetamide] | > 7.00 | < 6.00 |  |  |
| Cc1c[nH]c2ncc(-c3cccc(NC(=O)CF)c3)cc12 [Example 25, 2-fluoro-N-(3-(3-methyl-1H-pyrrolo[2,3-b]pyridin-5-yl)phenyl)acetamide] | > 7.00 | < 6.00 |  |  |
